Values of other authors as cited in patent US20140056804A1, “PHARMACEUTICAL COMPOUND WHICH INCLUDES CLINOPTILOLITE” (priority 2008, published 2014).

Details: NSAIDs such as naproxen

patients with non-symptomatic mucosal breaks: ~80%
SMILES: COc1ccc2cc([C@H](C)C(=O)O)ccc2c1 [naproxen]
